Measured values reported in paper PMC8998031, “A Boronated Derivative of Temozolomide Showing Enhanced Efficacy in Boron Neutron Capture Therapy of Glioblastoma” (Cells, 2022).

Tests used:
[1] = system: HS683 cells; test: Boron uptake in HS683 cells (ICP-AES); assay type: cell-based, Human; details: series of concentrations, 12 h
Description: (§1) Human GBM cells U87MG, U251, and HS683 and endothelial cell HUV-EC were obtained from the National Infrastructure of Cell Line Resource in Beijing, China. Cell lines were authenticated at the National Infrastructure of Cell Line Resource, Beijing, China. GBM cells were cultured in a DMEM medium containing 10% fetal bovine serum and 1% penicillin/streptomycin at 5% CO2 and 37 °C. HUV-EC cells were cultured in complete culture medium (Procell Life Science & Technology Co., Ltd., Wuhan, China). Cells were tested mycoplasma free using a Mycoplasma Test Kit (Cellorlab, China). All materials for cell culture were purchased from Gibco Invitrogen (Grand Island, NY, USA) unless otherwise noted.
(§2) TMZB (molecular weight, 412.21) and BPA (209.01; obtained from HEC Pharm, Dongguan, China) were made into 0.0–1.0 mg/g aqueous solutions. GBM cells and HUV-EC cells were treated with different concentrations of TMZB or BPA solutions. The drug-containing medium was removed 12 h later. The biodistribution of boron in TMZB- or BPA-treated mice was measured at the timepoint for neutron irradiation, i.e., 2 h after drug injection. Eight nude mice in each group were injected with 500 mg/kg of BPA, TMZ, or TMZB through the tail vein of the nude mice, in a 3,5-tetrazine-8-methoxy-4-phenylboronic acid-ethyl ester solution. […]

[2] = system: HS683 GBM mouse model; test: In vivo BNCT test, PET/CT imaging with 18F-FDG; parameters: species or system nude mice
Description: (§3) Single-cell suspension with HS683 cells was prepared at 2 × 10^7 cells/mL. Nude mice were anesthetized with an intraperitoneal injection of tribromoethanol at a dose of 150 mg/kg and positioned in a stereotaxic instrument. After disinfection with 75% alcohol, the scalp was cut open with a scalpel, the bregma point was selected, and a hole was made in the mouse skull using a 1 mm cranial drill. Then, 5 μL of cell suspension was taken using a micro-injector, which was then fixed on the brain with a needle depth at 3.0 mm using a stereotaxic instrument. Three minutes later, the micro-injector was lifted by 0.5 mm to make rooms for the injection of cells at 1 μL/min. After removing the needle, the drill hole in the mice skull was then filled with bone wax, the skin incision was sutured, and the wound was disinfected with iodophor. The GBM model was established approximately 28 days after cell injection.
PET/CT imaging with 1.5 uCi/g ^18F-FDG was performed for all the mice anesthetized with 2% isoflurane at 25 °C before BNCT. Mice were anesthetized with an intraperitoneal injection of tribromoethanol at a dose of 150 mg/kg. The mice were then injected i.v. with 50 mg ^10B/kg of BPA (5% fructose solution) or the TMZB solution at 50 mg ^10B/kg or TMZ at 600 mg/kg through the tail vein. Then, 90 min later, mice were fixed in the mold and anesthetized for BNCT. Mice heads were treated with 2 kw of neutron fluence for 2 h each time and 4 times for each mouse with 2 days interval in between, to achieve a total neutron fluence of 16.5 ± 0.3 × 10^11 n/cm^2. Boron compounds were injected prior to each of the radiation fractions. PET/CT imaging was performed again 31 days after BNCT. Three-dimensional reconstructions of the PET/CT images were performed using AMIDE (Stanford University, Stanford, CA, USA). ROI, SUV values, and tumor volume were then analyzed.

[3] = system: U251 cells; test: Boron uptake in U251 cells (ICP-AES); assay type: cell-based, Human; details: exposure of 1.99 mM BPA, 12 h
Description: as §1, §2

[4] = system: HS683 cells; test: Clonogenic cell survival assay with BNCT (neutron irradiation); assay type: cell-based, Human; details: total neutron fluence 2.4 ± 0.3 × 10^11 n/cm^2
Description: HS683 cells were prepared in a 200 μL centrifuge tube and treated with BPA or TMZB at gradient concentrations in 0.0–1.0 μg/mL for 30 min. Cells were irradiated with epithermal neutrons for approximately 30 min to achieve total neutron fluence at 2.4 ± 0.3 × 10^11 n/cm^2. After radiation, the drug-containing medium was removed, and cells were incubated in fresh medium for 12 h. A certain number of cells in a single-cell suspension were seeded into 6-well plates to grow colonies. After 2 weeks of incubation, colonies were fixed with 70% ethanol at room temperature for 10 min, stained with 0.1% crystal violet, and then dried overnight. Colonies with more than 50 cells were scored as clonogenic survivors under a bright field microscope.

[5] = In vivo boron distribution in GBM mouse model (ICP-AES); parameters: species or system nude mice; details: 50 mg 10B/kg
Description: as §3
TMZB (molecular weight, 412.21) and BPA (209.01; obtained from HEC Pharm, Dongguan, China) were made into 0.0–1.0 mg/g aqueous solutions. GBM cells and HUV-EC cells were treated with different concentrations of TMZB or BPA solutions. The drug-containing medium was removed 12 h later. […] Eight nude mice in each group were injected with 500 mg/kg of BPA, TMZ, or TMZB through the tail vein of the nude mice, in a 3,5-tetrazine-8-methoxy-4-phenylboronic acid-ethyl ester solution. […] Cells or tissues were digested with concentrated nitric acid for the analysis of boron concentration via ICP-AES.

[6] = system: HS683 cells; test: Clonogenic cell survival assay without BNCT; assay type: cell-based, Human
[7] = system: HS683 cells; test: CCK8 cell proliferation assay; assay type: cell-based, Human; details: read-out: IC50 (cell viability, CCK8)
Description: Cell proliferation was measured with a CCK8 assay following the manufacturer’s protocol (Dojindo Molecular Technologies, Inc., Kumamoto, Japan). The IC50 was calculated using Prism software using the following algorithm: Cell Viability=100/1+10^(LogIC50−Concentration)×Hillslope

N[C@@H](Cc1ccc([10B](O)O)cc1)C(=O)O [BPA, boronated phenylalanine]
boron uptake (in words) [1]: low uptake | SUV max after BNCT ([2]; 31 days after BNCT, 50 mg 10B/kg, 18F-FDG PET/CT): significantly reduced | 18F-FDG uptake in tumors after BNCT ([2]; 31 days after BNCT, compared with TMZ-treated group): significantly lower than that in the TMZ-treated group | tumor volume decrease (tumor shrinkage) after BNCT ([2]; 31 days after neutron irradiation, 50 mg 10B/kg i.v., total neutron fluence 16.5 ± 0.3 × 10^11 n/cm^2, PET/CT): 35.2% | boron uptake [3]: 0.126 μg/10^6 cells | clonogenic cell death after BNCT ([4]; HS683, 0.239 mM BPA): 63.7% ± 6.3 | tissue of main boron accumulation ([5]; 2 h after administration): mainly accumulates in the kidney | boron concentration in mice tumors ([5]; 2 h after i.v. administration): 16.93 ± 9.75 μg B/g | boron concentration in mice tumors ([5]; 6 h after i.v. administration): 5.07 ± 1.43 μg B/g | tumor-to-blood ratio (T/B) of boron concentrations ([5]; GBM mouse model): 2.26 ± 1.56 | tumor-to-normal brain ratio (T/N) of boron concentrations ([5]; GBM mouse model): 2.61 ± 1.98

N[C@@H](Cc1ccc(B(O)O)cc1)C(=O)O [BPA, boronated phenylalanine]
IC50 [6]: 2310 µM | IC50 ([7]; without BNCT): 1110 µM

Cn1nnc2c(C(N)=O)ncn2c1=O [TMZ, temozolomide]
IC50 ([6]; Homo sapiens, Hs 683): 213 µM | IC50 ([7]; Homo sapiens, Hs 683, without BNCT): 284 µM | clonogenic cell death after BNCT ([4]; HS683, 0.258 mM TMZ): 47.9% ± 6.6
